{"source": "the supplement of paper PMC12823440", "about": "“Inhibitors supercharge kinase turnover through native proteolytic circuits” (Nature, 2025)", "settings_in_all_cases": "lysate: 5-cell-line mix (COLO-205, K562, SK-N-BE(2), MV-4-11, OVCAR-8)", "key": {"[1]": {"biological_target": "T1, PAG1 (UniProt Q9NWQ8)", "T1 sequence (whole entry)": "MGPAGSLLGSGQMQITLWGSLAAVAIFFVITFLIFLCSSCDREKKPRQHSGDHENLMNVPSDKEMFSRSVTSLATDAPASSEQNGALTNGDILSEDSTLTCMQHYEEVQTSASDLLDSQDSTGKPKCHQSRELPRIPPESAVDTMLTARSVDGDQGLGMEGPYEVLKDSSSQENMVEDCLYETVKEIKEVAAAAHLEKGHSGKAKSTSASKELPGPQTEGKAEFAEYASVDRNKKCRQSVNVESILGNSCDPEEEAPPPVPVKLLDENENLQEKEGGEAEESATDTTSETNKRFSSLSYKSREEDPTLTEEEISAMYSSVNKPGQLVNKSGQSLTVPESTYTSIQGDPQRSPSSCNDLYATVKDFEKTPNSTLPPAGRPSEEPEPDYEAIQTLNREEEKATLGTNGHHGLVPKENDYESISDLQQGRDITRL", "assay": "EC50 for competition of Kinobead binding"}, "[2]": {"biological_target": "ABL1 (UniProt P00519)", "sequence (P00519 whole entry)": "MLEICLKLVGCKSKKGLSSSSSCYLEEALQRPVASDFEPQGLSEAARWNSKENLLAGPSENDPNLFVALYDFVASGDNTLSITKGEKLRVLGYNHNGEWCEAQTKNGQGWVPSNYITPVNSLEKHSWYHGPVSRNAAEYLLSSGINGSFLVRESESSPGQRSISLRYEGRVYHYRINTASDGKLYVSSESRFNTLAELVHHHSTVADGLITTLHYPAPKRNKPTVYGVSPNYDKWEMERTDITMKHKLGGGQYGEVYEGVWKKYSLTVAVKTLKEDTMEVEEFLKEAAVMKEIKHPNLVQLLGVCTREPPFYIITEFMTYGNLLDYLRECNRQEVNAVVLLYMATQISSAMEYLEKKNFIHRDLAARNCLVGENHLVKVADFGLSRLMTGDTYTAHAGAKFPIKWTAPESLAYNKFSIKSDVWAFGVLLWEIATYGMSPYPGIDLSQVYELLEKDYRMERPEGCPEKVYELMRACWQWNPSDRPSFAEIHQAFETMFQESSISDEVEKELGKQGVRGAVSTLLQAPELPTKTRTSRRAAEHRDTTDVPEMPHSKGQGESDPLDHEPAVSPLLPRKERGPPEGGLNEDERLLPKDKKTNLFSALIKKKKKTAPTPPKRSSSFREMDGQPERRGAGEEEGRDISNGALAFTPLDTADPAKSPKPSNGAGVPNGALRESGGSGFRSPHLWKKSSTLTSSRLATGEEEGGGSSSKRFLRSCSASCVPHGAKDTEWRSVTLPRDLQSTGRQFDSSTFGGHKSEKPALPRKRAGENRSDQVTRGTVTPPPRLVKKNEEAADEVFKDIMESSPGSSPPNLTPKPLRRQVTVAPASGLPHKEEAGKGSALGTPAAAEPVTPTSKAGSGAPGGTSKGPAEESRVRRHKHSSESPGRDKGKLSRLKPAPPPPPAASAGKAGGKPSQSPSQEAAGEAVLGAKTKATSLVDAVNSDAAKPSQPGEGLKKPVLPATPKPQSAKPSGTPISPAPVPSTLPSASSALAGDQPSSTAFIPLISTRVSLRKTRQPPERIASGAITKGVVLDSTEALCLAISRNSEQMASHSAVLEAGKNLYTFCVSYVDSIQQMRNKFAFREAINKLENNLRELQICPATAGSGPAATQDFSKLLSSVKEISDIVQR", "assay": "EC50 for competition of Kinobead binding"}, "[3]": {"biological_target": "FRK (UniProt P42685)", "sequence (P42685 whole entry)": "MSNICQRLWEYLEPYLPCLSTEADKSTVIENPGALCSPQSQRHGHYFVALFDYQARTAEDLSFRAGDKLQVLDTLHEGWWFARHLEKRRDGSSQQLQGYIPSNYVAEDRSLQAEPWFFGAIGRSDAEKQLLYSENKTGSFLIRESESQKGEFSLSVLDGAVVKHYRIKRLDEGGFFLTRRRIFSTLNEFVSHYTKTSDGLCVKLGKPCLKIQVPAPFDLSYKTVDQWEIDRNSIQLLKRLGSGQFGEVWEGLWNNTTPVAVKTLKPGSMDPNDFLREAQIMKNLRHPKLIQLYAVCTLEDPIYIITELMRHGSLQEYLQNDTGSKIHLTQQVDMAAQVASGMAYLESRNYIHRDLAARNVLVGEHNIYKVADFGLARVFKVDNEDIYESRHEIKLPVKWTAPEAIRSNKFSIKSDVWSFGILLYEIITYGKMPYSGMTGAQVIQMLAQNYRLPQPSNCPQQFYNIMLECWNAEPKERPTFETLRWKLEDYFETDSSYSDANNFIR", "assay": "EC50 for competition of Kinobead binding"}, "[4]": {"biological_target": "BTK (UniProt Q06187)", "sequence (Q06187 whole entry)": "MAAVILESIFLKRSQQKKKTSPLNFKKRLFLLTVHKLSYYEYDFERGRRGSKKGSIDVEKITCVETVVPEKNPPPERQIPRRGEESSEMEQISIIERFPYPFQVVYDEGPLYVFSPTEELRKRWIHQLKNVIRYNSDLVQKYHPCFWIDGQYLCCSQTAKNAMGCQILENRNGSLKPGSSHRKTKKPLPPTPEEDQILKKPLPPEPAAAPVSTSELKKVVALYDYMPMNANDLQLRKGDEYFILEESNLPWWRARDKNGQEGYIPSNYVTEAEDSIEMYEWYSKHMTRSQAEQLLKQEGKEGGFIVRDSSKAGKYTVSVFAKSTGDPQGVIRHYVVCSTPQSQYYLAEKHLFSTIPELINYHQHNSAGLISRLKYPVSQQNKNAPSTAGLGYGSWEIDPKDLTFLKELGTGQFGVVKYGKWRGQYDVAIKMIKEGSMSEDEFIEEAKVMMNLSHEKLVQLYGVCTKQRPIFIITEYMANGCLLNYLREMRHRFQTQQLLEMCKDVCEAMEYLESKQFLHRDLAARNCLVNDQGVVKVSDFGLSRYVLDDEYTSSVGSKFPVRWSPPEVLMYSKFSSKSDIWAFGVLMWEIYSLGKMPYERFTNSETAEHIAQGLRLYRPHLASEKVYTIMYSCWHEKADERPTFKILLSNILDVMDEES", "assay": "EC50 for competition of Kinobead binding"}, "[5]": {"biological_target": "UNC119 (UniProt Q13432)", "assay": "EC50 for competition of Kinobead binding"}, "[6]": {"biological_target": "T2, BCR (UniProt P11274)", "T2 sequence (whole entry)": "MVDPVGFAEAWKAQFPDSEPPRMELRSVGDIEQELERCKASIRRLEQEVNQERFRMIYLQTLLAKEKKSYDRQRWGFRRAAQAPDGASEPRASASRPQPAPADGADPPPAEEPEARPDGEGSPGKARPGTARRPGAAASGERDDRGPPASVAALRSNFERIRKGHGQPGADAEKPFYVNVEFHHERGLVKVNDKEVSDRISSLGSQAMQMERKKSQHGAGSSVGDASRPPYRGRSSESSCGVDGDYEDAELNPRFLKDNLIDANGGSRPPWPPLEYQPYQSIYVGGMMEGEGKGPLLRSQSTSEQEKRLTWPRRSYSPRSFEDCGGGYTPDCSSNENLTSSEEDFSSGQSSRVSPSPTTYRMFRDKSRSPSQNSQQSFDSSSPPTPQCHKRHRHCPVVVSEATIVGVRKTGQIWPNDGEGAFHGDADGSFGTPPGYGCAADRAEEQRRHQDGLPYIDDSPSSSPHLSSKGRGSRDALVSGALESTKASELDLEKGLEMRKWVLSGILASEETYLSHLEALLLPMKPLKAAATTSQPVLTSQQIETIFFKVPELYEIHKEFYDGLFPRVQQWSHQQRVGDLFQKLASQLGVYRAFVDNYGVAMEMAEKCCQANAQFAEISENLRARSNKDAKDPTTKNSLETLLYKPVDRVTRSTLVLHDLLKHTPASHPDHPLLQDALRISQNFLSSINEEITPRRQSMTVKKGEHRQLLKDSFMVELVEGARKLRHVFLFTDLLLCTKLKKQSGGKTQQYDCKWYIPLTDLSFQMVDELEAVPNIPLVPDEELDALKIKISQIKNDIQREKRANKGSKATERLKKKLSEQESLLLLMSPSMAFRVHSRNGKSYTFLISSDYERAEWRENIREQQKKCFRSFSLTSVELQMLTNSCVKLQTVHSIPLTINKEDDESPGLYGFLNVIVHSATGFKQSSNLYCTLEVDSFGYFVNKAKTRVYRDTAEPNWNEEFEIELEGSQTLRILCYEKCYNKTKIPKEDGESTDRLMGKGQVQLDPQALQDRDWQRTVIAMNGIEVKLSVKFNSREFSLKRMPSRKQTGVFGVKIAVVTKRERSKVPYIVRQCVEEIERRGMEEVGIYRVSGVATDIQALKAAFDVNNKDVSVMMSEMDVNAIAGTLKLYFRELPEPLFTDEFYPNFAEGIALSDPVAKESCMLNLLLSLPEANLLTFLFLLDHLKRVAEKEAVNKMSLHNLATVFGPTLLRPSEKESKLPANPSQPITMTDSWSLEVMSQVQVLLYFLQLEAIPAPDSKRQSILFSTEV", "assay": "EC50 for competition of Kinobead binding"}, "[7]": {"biological_target": "T3, MAP4K3 (UniProt Q8IVH8)", "T3 sequence (whole entry)": "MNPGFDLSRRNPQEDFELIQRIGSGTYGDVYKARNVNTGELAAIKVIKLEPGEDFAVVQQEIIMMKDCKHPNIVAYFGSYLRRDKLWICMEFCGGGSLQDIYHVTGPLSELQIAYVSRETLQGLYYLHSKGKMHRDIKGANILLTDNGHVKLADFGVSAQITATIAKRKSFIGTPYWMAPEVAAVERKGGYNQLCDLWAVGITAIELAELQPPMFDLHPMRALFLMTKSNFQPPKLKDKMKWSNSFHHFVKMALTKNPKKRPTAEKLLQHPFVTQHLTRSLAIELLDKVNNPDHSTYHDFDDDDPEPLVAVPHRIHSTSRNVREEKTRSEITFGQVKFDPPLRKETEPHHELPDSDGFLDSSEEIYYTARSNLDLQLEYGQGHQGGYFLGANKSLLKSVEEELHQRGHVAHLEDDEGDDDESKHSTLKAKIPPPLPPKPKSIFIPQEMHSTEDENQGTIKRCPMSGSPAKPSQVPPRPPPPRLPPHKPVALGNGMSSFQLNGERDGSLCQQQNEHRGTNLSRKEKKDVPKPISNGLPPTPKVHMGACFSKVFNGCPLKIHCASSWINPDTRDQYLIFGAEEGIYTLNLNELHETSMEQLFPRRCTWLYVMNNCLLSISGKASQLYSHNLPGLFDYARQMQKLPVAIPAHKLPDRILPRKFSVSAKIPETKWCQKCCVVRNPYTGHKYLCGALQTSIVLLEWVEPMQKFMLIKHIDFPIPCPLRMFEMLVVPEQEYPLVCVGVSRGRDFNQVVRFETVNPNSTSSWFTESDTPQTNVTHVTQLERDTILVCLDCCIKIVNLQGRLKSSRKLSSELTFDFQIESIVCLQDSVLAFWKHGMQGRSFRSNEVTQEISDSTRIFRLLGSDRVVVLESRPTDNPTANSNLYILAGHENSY", "assay": "EC50 for competition of Kinobead binding"}, "[8]": {"biological_target": "ABL2 (UniProt P42684)", "sequence (P42684 whole entry)": "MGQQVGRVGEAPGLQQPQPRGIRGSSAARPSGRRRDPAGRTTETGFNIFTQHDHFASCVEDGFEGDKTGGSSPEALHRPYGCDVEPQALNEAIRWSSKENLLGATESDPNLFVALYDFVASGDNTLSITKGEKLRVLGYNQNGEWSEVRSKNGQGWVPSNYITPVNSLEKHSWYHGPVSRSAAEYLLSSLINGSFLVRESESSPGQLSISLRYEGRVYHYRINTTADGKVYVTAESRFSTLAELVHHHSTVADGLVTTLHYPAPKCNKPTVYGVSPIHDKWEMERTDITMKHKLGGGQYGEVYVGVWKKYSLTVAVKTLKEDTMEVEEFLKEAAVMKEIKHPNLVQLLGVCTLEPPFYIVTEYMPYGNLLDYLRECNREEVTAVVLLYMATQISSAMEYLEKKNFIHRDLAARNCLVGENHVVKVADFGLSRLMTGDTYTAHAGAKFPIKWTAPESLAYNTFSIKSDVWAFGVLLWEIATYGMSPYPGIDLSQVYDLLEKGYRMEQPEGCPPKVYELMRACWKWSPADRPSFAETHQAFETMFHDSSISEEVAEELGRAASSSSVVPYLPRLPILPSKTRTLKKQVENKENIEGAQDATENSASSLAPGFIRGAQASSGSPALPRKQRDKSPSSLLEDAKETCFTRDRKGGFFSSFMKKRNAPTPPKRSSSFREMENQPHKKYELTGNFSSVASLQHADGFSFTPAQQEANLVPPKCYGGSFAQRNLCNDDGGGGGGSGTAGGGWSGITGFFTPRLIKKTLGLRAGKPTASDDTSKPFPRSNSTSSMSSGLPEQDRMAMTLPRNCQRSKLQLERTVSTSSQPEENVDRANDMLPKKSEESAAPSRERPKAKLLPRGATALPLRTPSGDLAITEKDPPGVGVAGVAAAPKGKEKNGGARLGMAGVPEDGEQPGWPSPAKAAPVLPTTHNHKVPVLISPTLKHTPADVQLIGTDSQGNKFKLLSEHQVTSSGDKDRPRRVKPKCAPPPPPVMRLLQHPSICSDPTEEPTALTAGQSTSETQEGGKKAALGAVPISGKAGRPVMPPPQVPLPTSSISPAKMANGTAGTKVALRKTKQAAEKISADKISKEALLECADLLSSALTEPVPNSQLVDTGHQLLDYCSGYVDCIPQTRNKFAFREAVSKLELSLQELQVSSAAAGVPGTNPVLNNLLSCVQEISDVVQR", "assay": "EC50 for competition of Kinobead binding"}, "[9]": {"biological_target": "T1, PAG1", "assay": "apparent Kd (Kinobeads competition)"}, "[10]": {"biological_target": "T4, FECH (UniProt P22830)", "T4 sequence (whole entry)": "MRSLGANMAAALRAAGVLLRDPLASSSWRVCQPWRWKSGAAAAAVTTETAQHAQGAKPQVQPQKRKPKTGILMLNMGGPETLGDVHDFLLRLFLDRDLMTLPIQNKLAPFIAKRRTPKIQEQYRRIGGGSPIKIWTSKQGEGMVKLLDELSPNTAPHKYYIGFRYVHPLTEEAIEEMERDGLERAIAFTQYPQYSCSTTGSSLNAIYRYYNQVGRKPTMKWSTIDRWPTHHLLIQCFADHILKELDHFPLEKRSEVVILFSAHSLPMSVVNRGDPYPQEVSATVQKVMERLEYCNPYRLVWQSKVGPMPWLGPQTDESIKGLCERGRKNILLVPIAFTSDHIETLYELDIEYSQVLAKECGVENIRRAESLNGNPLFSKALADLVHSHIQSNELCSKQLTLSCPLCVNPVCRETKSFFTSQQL", "assay": "apparent Kd (Kinobeads competition)"}, "[11]": {"biological_target": "UNC119 (UniProt Q13432)", "assay": "apparent Kd (Kinobeads competition)"}, "[12]": {"biological_target": "T2, BCR", "assay": "apparent Kd (Kinobeads competition)"}}, "note": "± gives the uncertainty stated by the source.", "data": [{"smiles": "COc1ccc2c(C(=O)Nc3ccc(NC(=O)c4nn(C5CCN(C(=O)CC(C)(C)C#N)CC5)c5ccc(F)cc45)cc3Cl)cnn2c1", "note": "[Src Inhibitor 3]", "values": [{"measurement": "EC50", "setting": "[1]", "result": "70.9 ± 11", "unit": "nM"}, {"measurement": "EC50", "setting": "[2]", "result": "1530 ± 2600", "unit": "nM"}, {"measurement": "EC50", "setting": "[3]", "result": "17600 ± 34000", "unit": "nM"}, {"measurement": "EC50", "setting": "[4]", "result": "4250 ± 2700", "unit": "nM"}, {"measurement": "EC50", "setting": "[5]", "result": "904 ± 250", "unit": "nM"}, {"measurement": "EC50", "setting": "[6]", "result": "790 ± 430", "unit": "nM"}, {"measurement": "EC50", "setting": "[7]", "result": "14300 ± 28000", "unit": "nM"}, {"measurement": "EC50", "setting": "[8]", "result": "332 ± 170", "unit": "nM"}, {"measurement": "Kd", "setting": "[9]", "result": 48.4, "unit": "nM"}, {"measurement": "Kd", "setting": "[10]", "result": 6350, "unit": "nM"}, {"measurement": "Kd", "setting": "[11]", "result": 24.1, "unit": "nM"}, {"measurement": "Kd", "setting": "[12]", "result": 127, "unit": "nM"}]}]}
